According to PMC4967831, “Structural dissection of a complex Bacteroides ovatus gene locus conferring xyloglucan metabolism in the human gut” (Open Biology, 2016):

What was measured:
Format in all cases: binding
BoGH31 = molecular target: T1, BoGH31 (Bacteroides ovatus, UniProt A7LXT0); assay: crystal structure of covalent glycosyl-enzyme intermediate (soak)
T1 construct: gene BACOVA_02646; pET-YSBL3C construct with N-terminal His6-tag and 3C-cleavage site

BoGH43B = molecular target: T2, BoGH43B (Bacteroides ovatus, UniProt A7LXU0); assay: ITC
T2 construct: gene BACOVA_02656; expressed from pET21a(BoGH43B)
T2 sequence (A7LXU0 24-529): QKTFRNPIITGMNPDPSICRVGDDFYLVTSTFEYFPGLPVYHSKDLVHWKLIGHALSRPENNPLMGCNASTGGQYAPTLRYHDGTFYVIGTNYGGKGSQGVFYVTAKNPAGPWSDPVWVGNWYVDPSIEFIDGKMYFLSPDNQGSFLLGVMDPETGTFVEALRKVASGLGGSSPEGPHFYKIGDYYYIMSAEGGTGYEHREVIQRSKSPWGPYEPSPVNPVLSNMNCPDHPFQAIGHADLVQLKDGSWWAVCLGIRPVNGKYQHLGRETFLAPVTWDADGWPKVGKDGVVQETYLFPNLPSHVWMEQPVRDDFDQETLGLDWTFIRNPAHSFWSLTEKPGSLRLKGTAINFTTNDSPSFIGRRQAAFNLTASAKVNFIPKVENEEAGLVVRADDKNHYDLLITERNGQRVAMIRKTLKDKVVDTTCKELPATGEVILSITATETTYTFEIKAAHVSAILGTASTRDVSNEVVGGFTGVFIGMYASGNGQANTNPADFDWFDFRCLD

BoGH43A [1] = molecular target: T3, BoGH43A (Bacteroides ovatus, UniProt A7LXT8); assay: ITC and crystal structure of the complex
T3 construct: gene BACOVA_02654; pET28a construct with N-terminal His6-tag
T3 sequence (A7LXT8 21-526): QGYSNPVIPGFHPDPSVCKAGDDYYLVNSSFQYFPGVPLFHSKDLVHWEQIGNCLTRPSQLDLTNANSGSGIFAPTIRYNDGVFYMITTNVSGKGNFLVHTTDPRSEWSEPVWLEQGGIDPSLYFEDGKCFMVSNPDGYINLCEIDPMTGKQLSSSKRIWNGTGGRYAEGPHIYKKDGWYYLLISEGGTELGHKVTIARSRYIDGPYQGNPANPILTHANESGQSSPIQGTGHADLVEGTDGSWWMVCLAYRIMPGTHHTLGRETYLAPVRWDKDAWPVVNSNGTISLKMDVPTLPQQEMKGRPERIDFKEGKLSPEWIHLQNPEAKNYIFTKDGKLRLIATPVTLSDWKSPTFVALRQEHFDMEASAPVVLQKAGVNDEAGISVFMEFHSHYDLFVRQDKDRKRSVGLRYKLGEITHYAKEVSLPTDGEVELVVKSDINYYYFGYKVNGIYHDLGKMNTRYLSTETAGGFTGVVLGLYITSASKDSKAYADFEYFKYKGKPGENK

BoGH43A [2] = molecular target: T3, BoGH43A; assay: crystal structure of the complex (soak); too weak to be measured by ITC
BoGH3B = molecular target: T4, BoGH3B (Bacteroides ovatus, UniProt A7LXU3); assay: crystal structure; glucose co-purified in the active site
T4 construct: gene BACOVA_02659; expressed from pET21a(GH3B)
T4 sequence (A7LXU3 23-786): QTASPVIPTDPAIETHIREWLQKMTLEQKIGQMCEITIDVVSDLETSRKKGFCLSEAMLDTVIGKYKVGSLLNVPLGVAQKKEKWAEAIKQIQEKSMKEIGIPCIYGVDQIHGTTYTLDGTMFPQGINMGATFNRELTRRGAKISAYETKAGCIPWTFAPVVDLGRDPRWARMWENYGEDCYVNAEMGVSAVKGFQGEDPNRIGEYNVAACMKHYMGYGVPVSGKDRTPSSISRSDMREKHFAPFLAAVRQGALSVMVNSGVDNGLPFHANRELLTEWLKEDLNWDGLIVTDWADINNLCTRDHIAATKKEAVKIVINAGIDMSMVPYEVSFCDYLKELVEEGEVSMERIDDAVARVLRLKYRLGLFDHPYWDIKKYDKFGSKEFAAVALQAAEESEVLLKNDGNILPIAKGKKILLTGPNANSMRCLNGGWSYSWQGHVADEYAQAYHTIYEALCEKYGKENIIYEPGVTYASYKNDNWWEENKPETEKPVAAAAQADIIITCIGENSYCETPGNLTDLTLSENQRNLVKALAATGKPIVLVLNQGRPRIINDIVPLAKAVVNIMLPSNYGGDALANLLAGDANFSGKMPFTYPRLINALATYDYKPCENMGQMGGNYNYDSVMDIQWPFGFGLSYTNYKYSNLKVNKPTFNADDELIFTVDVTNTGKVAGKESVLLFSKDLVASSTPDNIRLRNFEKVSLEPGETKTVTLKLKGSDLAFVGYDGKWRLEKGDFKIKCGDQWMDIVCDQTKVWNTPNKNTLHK

T1 sequence (A7LXT0 22-954): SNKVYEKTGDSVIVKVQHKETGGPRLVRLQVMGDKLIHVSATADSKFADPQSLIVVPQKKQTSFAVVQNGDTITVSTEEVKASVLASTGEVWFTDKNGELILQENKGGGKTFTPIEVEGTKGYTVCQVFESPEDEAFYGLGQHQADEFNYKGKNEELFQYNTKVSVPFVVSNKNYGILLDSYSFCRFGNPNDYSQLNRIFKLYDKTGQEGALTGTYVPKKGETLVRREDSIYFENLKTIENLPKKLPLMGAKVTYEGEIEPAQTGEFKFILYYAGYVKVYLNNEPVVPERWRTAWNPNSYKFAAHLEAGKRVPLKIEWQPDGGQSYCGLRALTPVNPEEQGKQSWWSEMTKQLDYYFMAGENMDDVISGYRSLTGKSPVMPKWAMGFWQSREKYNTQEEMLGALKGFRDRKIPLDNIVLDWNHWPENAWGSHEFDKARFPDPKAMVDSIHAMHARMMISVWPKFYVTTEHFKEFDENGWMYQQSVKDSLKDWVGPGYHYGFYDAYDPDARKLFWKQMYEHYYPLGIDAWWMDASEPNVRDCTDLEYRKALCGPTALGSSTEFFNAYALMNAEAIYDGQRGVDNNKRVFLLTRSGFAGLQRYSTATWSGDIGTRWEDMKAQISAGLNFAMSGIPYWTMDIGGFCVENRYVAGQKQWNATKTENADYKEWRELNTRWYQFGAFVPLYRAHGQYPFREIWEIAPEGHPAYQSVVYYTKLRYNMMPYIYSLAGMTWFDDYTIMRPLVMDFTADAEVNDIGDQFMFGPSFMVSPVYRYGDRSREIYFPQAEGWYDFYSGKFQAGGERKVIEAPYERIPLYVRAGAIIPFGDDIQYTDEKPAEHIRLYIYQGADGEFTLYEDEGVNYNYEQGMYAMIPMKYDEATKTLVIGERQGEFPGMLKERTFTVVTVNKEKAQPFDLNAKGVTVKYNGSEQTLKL

For `OC[C@]1(F)O[C@H](F)[C@H](O)[C@@H](O)[C@@H]1O` [5FIdoF, 5-fluoro-β-L-idosyl fluoride], the “crystal structure of covalent glycosyl-enzyme intermediate (soak)” value (BoGH31) was 5FIdoF forms an α-glycosidic linkage to the side-chain carboxylate of Asp553.

In the case of `OC[C@@H]1NC[C@H](O)[C@H]1O` [AraDNJ], the Kd (BoGH43B) is reported as 111 ± 6 µM and the Kd (BoGH43A [1]) is reported as 35 ± 4 µM.

In the case of `OC[C@@H]1O/C(=N\O)[C@H](O)[C@H]1O` [AraLOG, (Z)-L-Arabinonhydroximo-1,4-lactone], the “crystal structure of the complex (soak); too weak to be measured by ITC” value (BoGH43A [2]) is reported as “the inhibitor stacking against Tyr187 while also H-bonding directly to the side chains of Glu210 and Glu189”.

With `OC[C@H]1O[C@@H](O)[C@H](O)[C@@H](O)[C@@H]1O` [glucose] the “crystal structure; glucose co-purified in the active site” value (BoGH3B) was “BoGH3B was found to co-purify with glucose in its active site (figure 5b)”.
